Results published in article PMC12073238, “The α-Glucosidase Inhibition Activities of Phaeochromycins D and E Isolated from Marine Streptomyces sp. FJ0218” (Molecules, 2025).
Where two headings read alike, the source gives them in different places. Values belong to the molecule of their own block, whether it stands above or below them.

How the values were obtained:
[1] = target: T1, α-glucosidase (Saccharomyces cerevisiae, UniProt P53341); conditions: cited from earlier work
[2] = target: T1, α-glucosidase; assay: inhibition kinetics of α-glucosidase, Lineweaver–Burk double-reciprocal plots; format: biochemical; conditions: compound 1 at 0.5 and 0.7 mM, compound 2 at 0.2 and 0.3 mM; for inhibition type: ρNPG 0.25-4.0 mM
Experimental: Louis, MO, USA) in the same PBS buffer. […] After being thoroughly mixed, the mixture was placed in a 37 °C constant temperature incubator for 15 min. […] Then, 80 μL of 200 mM Na2CO3 solution was added to complete the reaction. Finally, the absorbance value (OD) was measured at 405 nm using a microplate reader. The experiment used 20 μL of PBS as the background control instead of 20 μL of α-glucosidase solution. Additionally, 20 μL of PBS was used as the negative control instead of the test sample. […] Each treatment was repeated three times. The α-glucosidase inhibitory activity was calculated using the following formula: Inhibitory rate (%) = [(An - As)/An] × 100, where As represents the absorbance of the sample reaction solution, and An represents the absorbance of the negative control. The IC50 values, the inhibitor concentration in mM that inhibits 50% of the enzyme activity, were determined graphically by interpolating from the inhibitions determined with different concentrations of compounds, through statistical analysis using SPSS 18.0. […] For compound 1, concentrations of 0.5 mM and 0.7 mM were used, while for compound 2, concentrations of 0.2 mM and 0.3 mM were selected. […] The enzyme reaction was performed using the conditions described above. Inhibition types were analyzed using double-reciprocal plots generated with Origin 2021.

[3] = system: small intestinal α-glucosidase; design: method as in PMID 26840363; conditions: small intestinal α-glucosidase in rats; cited from earlier work
[4] = target: MAPKAP kinase-2; design: method as in PMID 16124774; conditions: weak inhibitors; cited from earlier work
[5] = system: HeLa cell line; design: method as in PMID 19190740; conditions: at a concentration of 10 μg/mL; cited from earlier work

T1 sequence (P53341 whole entry): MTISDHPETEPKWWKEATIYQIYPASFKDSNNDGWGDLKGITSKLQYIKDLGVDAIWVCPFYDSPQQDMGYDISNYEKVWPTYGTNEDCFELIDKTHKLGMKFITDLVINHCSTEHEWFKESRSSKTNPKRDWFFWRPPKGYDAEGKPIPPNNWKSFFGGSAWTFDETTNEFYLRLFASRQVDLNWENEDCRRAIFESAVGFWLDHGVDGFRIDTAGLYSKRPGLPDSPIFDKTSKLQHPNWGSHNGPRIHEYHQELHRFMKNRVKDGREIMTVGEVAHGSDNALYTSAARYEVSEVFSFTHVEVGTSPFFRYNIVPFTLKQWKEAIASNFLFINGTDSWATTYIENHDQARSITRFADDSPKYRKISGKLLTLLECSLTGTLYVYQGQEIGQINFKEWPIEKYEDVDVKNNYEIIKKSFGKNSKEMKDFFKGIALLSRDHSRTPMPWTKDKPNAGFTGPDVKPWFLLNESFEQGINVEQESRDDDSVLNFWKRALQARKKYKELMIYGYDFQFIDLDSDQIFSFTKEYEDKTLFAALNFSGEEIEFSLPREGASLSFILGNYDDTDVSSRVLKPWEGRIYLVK

Molecule: Cc1nc2c(cc(O)c3c(=O)c4ccccc4oc32)o1 [5-hydroxy-2-methyl-6H-xantheno[4,3-d]oxazol-6-one]
inhibition type ([1]; kinetic analysis): competitive inhibitor

effect on Km [2]: Km decreases
effect on Vmax [2]: decrease in Vmax
inhibition type [2]: uncompetitive inhibitor
Molecule: CCCc1cc(=O)c2c(CC(=O)O)cccc2o1 [Compound 1, phaeochromycin E]

effect on Km [2]: keeping the Km constant
effect on Vmax [2]: decreasing the 1/Vmax
inhibition type [2]: non-competitive inhibitor
Molecule: CCCc1cc(=O)c2c(CC(=O)CC(C)O)cccc2o1 (stereo not shown) [Compound 2, phaeochromycin D]

Molecule: NS(=O)(=O)c1ccc(N/N=C/c2coc3ccccc3c2=O)cc1 [Compound 4d]
inhibition type ([1]; Lineweaver–Burk plot analysis): non-competitive mode

Molecule: O=C(OC[C@H]1O[C@@H](OC(=O)c2cc(O)c(O)c(OC(=O)c3cc(O)c(O)c(O)c3)c2)[C@H](OC(=O)c2cc(O)c(O)c(OC(=O)c3cc(O)c(O)c(O)c3)c2)[C@@H](OC(=O)c2cc(O)c(O)c(OC(=O)c3cc(O)c(O)c(O)c3)c2)[C@@H]1OC(=O)c1cc(O)c(O)c(OC(=O)c2cc(O)c(O)c(O)c2)c1)c1cc(O)c(O)c(OC(=O)c2cc(O)c(O)c(O)c2)c1 [Gallotannin]
inhibition type [1]: parabolic mixed-type inhibition

Molecule: OC[C@@H]1[C@@H](O)[C@H](O)C[S@@+]1C[C@@H](O)[C@@H](O)[C@H](O)[C@@H](O)CO [Neoponkoranol]
inhibition type [3]: strong competitive inhibition

Molecule: CCCc1cc(=O)c2c(Cc3cc(O)cc(=O)o3)cccc2o1 [Phaeochromycin C]
IC50 [4]: 130 µM

Molecule: CC(=O)CCc1ccc(O)cc1 [Raspberry ketone]
inhibition type ([1]; binding reversibly and quickly): non-competitively

Molecule: O=c1c(-c2ccc(O)cc2)coc2cc(O)ccc12 [daidzein]
inhibition type [1]: non-competitive action

Molecule: O=c1c(-c2ccc(O)cc2)coc2cc(O)cc(O)c12 [genistein]
inhibition type [1]: non-competitive action

Molecule: Phaeochromycin A
IC50 [4]: 39 µM

Molecule: phaeochromycin H
inhibitory rate against the HeLa cell line [5]: 46.0%
